Source: patent US8158789B2, “Arginine derivatives with NP-I antagonistic activity” (Ark Therapeutics Group Ltd., priority 2006, dated 2012)

Target: T1, neuropilin-1 (NP-1) (Homo sapiens, UniProt O14786)
T1 construct: expressed in transfected cells; host or cells: porcine aortic endothelial cells (PAE/NP-1), hygromycin B selection
Assay: 125I-VEGF-A165 binding
Conditions: assay not given; 125I-VEGF-A165 binding is the only concentration-response binding method described
Method: Porcine aortic endothelial cells expressing neuropilin-1 (PAE/NP-1) were cultured in Ham's F12 medium containing 10% fetal bovine serum (FBS) and 25 μg/ml hygromycin B. PAE cells expressing KDR (PAE/KDR) were grown in Ham's F12 medium containing 10% FBS and 250 μg/ml […] G418. Human carcinoma cell lines (DU145, A549 and ACHN) were grown in RPMI 1640 medium containing 10% FBS and L-glutamine.
Confluent cells in 24-well plates were washed twice with phosphate-buffered saline (PBS). At 4° C. various concentrations of peptides or peptidomimetics diluted in binding medium (Dulbecco's modified Eagle's medium, 25 mM HEPES pH 7.3 containing 0.1% BSA) were added, followed by addition of 0.1 nM of ^125I-VEGF-A165 (1200-1800 Ci/mmol, GE Healthcare). After 2 h of incubation at 4° C., the medium was aspirated and washed 4 times with cold PBS. The cells were lysed with 0.25 M NaOH, 0.5% SDS solution, and the bound radioactivity of the lysates was measured in a γ counter. Non-specific binding was determined in the presence of 100-fold excess unlabelled VEGF-A165.

T1 sequence (O14786 22-923): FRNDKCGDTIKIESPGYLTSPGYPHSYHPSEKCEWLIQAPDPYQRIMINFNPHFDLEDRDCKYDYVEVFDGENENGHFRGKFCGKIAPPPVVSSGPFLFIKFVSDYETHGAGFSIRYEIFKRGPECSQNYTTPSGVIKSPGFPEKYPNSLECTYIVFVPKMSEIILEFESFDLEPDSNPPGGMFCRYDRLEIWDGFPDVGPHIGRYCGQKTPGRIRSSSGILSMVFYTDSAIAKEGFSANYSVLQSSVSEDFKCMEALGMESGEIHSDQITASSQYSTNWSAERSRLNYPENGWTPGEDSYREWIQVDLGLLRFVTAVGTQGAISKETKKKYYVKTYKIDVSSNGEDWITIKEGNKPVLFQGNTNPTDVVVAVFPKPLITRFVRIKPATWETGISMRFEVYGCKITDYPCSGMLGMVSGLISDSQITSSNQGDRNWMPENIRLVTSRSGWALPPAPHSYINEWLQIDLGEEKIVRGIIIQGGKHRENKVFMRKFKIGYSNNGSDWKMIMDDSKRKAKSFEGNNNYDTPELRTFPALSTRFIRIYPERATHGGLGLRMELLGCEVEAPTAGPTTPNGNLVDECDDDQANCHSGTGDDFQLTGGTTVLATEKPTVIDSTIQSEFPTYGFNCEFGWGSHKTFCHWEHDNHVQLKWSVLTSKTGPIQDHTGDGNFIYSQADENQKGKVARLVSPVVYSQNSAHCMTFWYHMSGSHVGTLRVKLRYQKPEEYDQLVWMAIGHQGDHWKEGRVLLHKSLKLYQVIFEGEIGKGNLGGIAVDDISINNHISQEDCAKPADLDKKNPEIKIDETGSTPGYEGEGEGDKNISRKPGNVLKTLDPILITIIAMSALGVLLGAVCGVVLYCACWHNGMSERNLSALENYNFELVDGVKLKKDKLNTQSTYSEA

IC50, < 20 µM:
N=C(N)NCCC[C@H](NC(=O)c1sccc1NS(=O)(=O)c1cccc(N)c1)C(=O)O [EG00174, (S)-2-{[3-(3-Amino-benzenesulfonylamino)-thiophene-2-carbonyl]-amino}-5-guanidino-pentanoic acid]
CC(=O)Nc1ccc(S(=O)(=O)Nc2ccsc2C(=O)N[C@@H](CCCNC(=N)N)C(=O)O)cc1 [EG00203, (S)-2-{[3-(4-Acetylamino-benzenesulfonylamino)-thiophene-2-carbonyl]-amino}-5-guanidino-pentanoic acid]
N=C(N)NCCC[C@H](NC(=O)c1sccc1NS(=O)(=O)c1ccccc1[N+](=O)[O-])C(=O)O [EG00224, (S)-5-Guanidino-2-{[3-(2-nitro-benzenesulfonylamino)-thiophene-2-carbonyl]-amino}-pentanoic acid]
N=C(N)NCCC[C@H](NC(=O)c1sccc1NS(=O)(=O)c1ccccc1N)C(=O)O [EG00225, (S)-2-{[3-(2-Amino-benzenesulfonylamino)-thiophene-2-carbonyl]-amino}-5-guanidino-pentanoic acid]
Cc1ccc2nsnc2c1S(=O)(=O)Nc1ccsc1C(=O)N[C@@H](CCCNC(=N)N)C(=O)O [EG00264, (S)-2-{[3-(5-Methyl-benzo[1,2,5]thiadiazole-5-methyl-4-sulfonylamino)-thiophene-2-carbonyl]-amino}-5-guanidino-pentanoic acid]
Cc1nc(S(=O)(=O)Nc2ccsc2C(=O)N[C@@H](CCCNC(=N)N)C(=O)O)cn1C [EG00265, (S)-2-{[3-(1,2-Dimethyl-1H-imidazole-4-sulfonylamino)-thiophene-2-carbonyl]-amino}-5-guanidino-pentanoic acid]
N=C(N)NCCC[C@H](NC(=O)c1sccc1NS(=O)(=O)c1cccc(C#CCN)c1)C(=O)O [EG00274, (S)-2-({3-[3-(3-Amino-prop-1-ynyl)-benzenesulfonylamino]-thiophene-2-carbonyl}-amino)-5-guanidino-pentanoic acid]
Cc1nn(C)c(Cl)c1CNc1cccc(S(=O)(=O)Nc2ccsc2C(=O)N[C@@H](CCCNC(=N)N)C(=O)O)c1 [EG00280, (S)-2-[(3-{3-[(5-Chloro-1,3-dimethyl-1H-pyrazol-4-ylmethyl)-amino]-benzenesulfonylamino}-thiophene-2-carbonyl)-amino]-5-guanidino-pentanoic acid]
N=C(N)NCCC[C@H](NC(=O)c1sccc1NS(=O)(=O)c1cccc(NCc2ccccn2)c1)C(=O)O [EG00283, (S)-5-Guanidino-2-[(3-{3-[(pyridin-2-ylmethyl)-amino]-benzenesulfonylamino}-thiophene-2-carbonyl)-amino]-pentanoic acid]
N=C(N)NC(=O)CC[C@H](NC(=O)c1sccc1NS(=O)(=O)c1ccccc1[N+](=O)[O-])C(=O)O [EG00285, (S)-5-Guanidino-2-{[3-(2-nitro-benzenesulfonylamino)-thiophene-2-carbonyl]-amino}-5-oxo-pentanoic acid]
N=C(N)NCCC[C@H](NC(=O)c1sccc1NS(=O)(=O)c1cc2ccccc2o1)C(=O)O [EG00287, (S)-2-{[3-(Benzofuran-2-sulfonylamino)-thiophene-2-carbonyl]-amino}-5-guanidino-pentanoic acid]
N=C(N)NCCC[C@H](NC(=O)c1sccc1NS(=O)(=O)c1cccc2nonc12)C(=O)O [EG00288, (S)-2-{[3-(Benzo[1,2,5]oxadiazole-4-sulfonylamino)-thiophene-2-carbonyl]-amino}-5-guanidino-pentanoic acid]
N=C(N)NCCC[C@H](NC(=O)c1sccc1NS(=O)(=O)c1cc2ccccc2s1)C(=O)O [EG00291, (S)-2-{[3-(Benzo[b]thiophene-2-sulfonylamino)-thiophene-2-carbonyl]-amino}-5-guanidino-pentanoic acid]
N=C(N)NCCC[C@H](NC(=O)c1sccc1NS(=O)(=O)c1cc(Br)cc2c1OCC2)C(=O)O [EG00299, (S)-2-{[3-(5-Bromo-2,3-dihydro-benzofuran-7-sulfonylamino)-thiophene-2-carbonyl]-amino}-5-guanidino-pentanoic acid]
Cc1cc(CNc2cccc(S(=O)(=O)Nc3ccsc3C(=O)N[C@@H](CCCNC(=N)N)C(=O)O)c2)n(C)n1 [EG00316, (S)-2-[(3-{3-[(2,5-Dimethyl-2H-pyrazol-3-ylmethyl)-amino]-benzenesulfonyl-amino}-thiophene-2-carbonyl)-amino]-5-guanidino-pentanoic acid]
Cc1noc(C)c1CNc1cccc(S(=O)(=O)Nc2ccsc2C(=O)N[C@@H](CCCNC(=N)N)C(=O)O)c1 [EG00317, (S)-2-[(3-{3-[(3,5-Dimethyl-isoxazol-4-ylmethyl)-amino]-benzenesulfonyl-amino}-thiophene-2-carbonyl)-amino]-5-guanidino-pentanoic acid]
Cc1nn(-c2ccccc2)c(Cl)c1CNc1cccc(S(=O)(=O)Nc2ccsc2C(=O)N[C@@H](CCCNC(=N)N)C(=O)O)c1 [EG00318, (S)-2-[(3-{3-[(5-Chloro-3-methyl-1-phenyl-1H-pyrazol-4-ylmethyl)-amino]-benzenesulfonylamino]-thiophene-2-carbonyl)-amino]-5-guanidino-pentanoic acid]
Cn1nc(CNc2cccc(S(=O)(=O)Nc3ccsc3C(=O)N[C@@H](CCCNC(=N)N)C(=O)O)c2)c2ccccc21 [EG00319, (S)-5-Guanidino-2-[(3-{3-[(1-methyl-1H-indazol-3-ylmethyl)-amino]-benzenesulfonylamino}-thiophene-2-carbonyl)-amino]-pentanoic acid]
N=C(N)NCCC[C@H](NC(=O)c1sccc1NS(=O)(=O)c1cccc(CCc2cccnc2)c1)C(=O)O [EG00323, (S)-5-Guanidino-2-({3-[3-(2-pyridin-3-yl-ethyl)-benzenesulfonylamino]-thiophene-2-carbonyl}-amino)-pentanoic acid]
Cc1nc(CNc2cccc(S(=O)(=O)Nc3ccsc3C(=O)N[C@@H](CCCNC(=N)N)C(=O)O)c2)c(C)o1 [EG00332, (S)-2-[(3-{3-[(2,5-Dimethyl-oxazol-4-ylmethyl)-amino]-benzenesulfonylamino}-thiophene-2-carbonyl)-amino]-5-guanidino-pentanoic acid]
Cc1noc(C)c1-c1cccc(S(=O)(=O)Nc2ccsc2C(=O)N[C@@H](CCCNC(=N)N)C(=O)O)c1 [EG00350, (S)-2-({3-[3-(3,5-Dimethyl-isoxazol-4-yl)-benzenesulfonylamino]-thiophene-2-carbonyl}-amino)-5-guanidino-pentanoic acid]
N=C(N)NCCC[C@H](NC(=O)c1sccc1NS(=O)(=O)c1cccc(CCCN)c1)C(=O)O [EG00369, (S)-2-({3-[3-(3-Amino-propyl)-benzenesulfonylamino]-thiophene-2-carbonyl}-amino)-5-guanidino-pentanoic acid]
Cc1noc(C)c1-c1cc2c(c(S(=O)(=O)Nc3ccsc3C(=O)N[C@@H](CCCNC(=N)N)C(=O)O)c1)OCC2 [EG00428, (S)-2-({3-[5-(3,5-Dimethyl-isoxazol-4-yl)-2,3-dihydro-benzofuran-7-sulfonyl-amino]-thiophene-2-carbonyl}-amino)-5-guanidino-pentanoic acid]
CN1CCOc2cc(-c3cc4c(c(S(=O)(=O)Nc5ccsc5C(=O)N[C@@H](CCCNC(=N)N)C(=O)O)c3)OCC4)cnc21 [EG00475, (S)-5-Guanidino-2-({3-[5-(4-methyl-3,4-dihydro-2H-pyrido[3,2-b][1,4]oxazin-7-yl)-2,3-dihydro-benzofuran-7-sulfonylamino]-thiophene-2-carbonyl}-amino)-pentanoic acid]
